Laboratory results from patent US8158165B2, “Preventative treatment and remission of allergic diseases” (CSIR, priority 2006, dated 2012).
pEC50, pIC50, pKi: −log10 of the molar value. Values after ≈ are worked out from the molar mass of the structure shown.

Legend:
[1] = tested on: NF-κB transcription factor; assay: Transcription Response, NF-κB (Jurkat lacZ reporter); format: cell-based, human
Source text: The assay is described in Lenardo M J, Baltimaore D. Lenardo M J, Baltimaore D, NF-κB: A pleiotropic mediator of inducible and tissue specific gene control. Cell. 58: 227-229, 1989, the contents of which are incorporated herein by way of reference.
Human T lymphocytic Jurkat cells, transfected with a response element-lacZ reporter in which transcription of the β-galactosidase gene is directed by the binding site for the NF-κB transcription factor, are used. Test compound and/or vehicle are incubated with the cells (1.5×10^6/ml) in the presence of 0.5 μM A23187 and 50 ng/ml PMA (phorbol 12-myristate 13-acetate) in RPMI-1640 pH 7.4 at 37° C. for 4 hours. Test compound-induced β-galactosidase activity is determined by the conversion of FDG (fluorescein di-β-D-galactopyranoside) to fluorescein. Fluorescence intensity is read on SpectroFluor Plus plate reader. […]

Phosphodiesterase PDE4 = assay: phosphodiesterase PDE4 enzyme assay; format: biochemical, human; conditions: 100 μg/ml
Protocol: Based on the results shown in Table 6, it follows that the combined fraction (WG-I-5AB+WG-I-5C) is effective in binding to the glucocorticoid receptor (GR) site. […] This inhibitory effect implies that the combined fraction (WG-I-5AB+WG-I-5C) has a bronchodilatory effect. For the PDE4 test, PDE4 which has been partially purified from human U-937 pronocytic cells is used. The test compound and/or vehicle is incubated with 0.2 μg enzyme and 1 μM cAMP containing 0.01 μM [^3H]cAMP in Tris buffer pH 7.5 for 20 minutes at 30° C. The reaction is terminated by boiling for 2 minutes and the resulting AMP is converted to adenosine by addition of 10 mg/ml snake venom necleotidase and further incubation at 30° C. for 10 minutes. Unhydrolyzed cAMP is bound to AGI-X2 resin, and remaining [^3H]adenosine in the aqueous phase is quantified by scintillation counting. Compounds are screened at 100 μM. IBMX (3-isobutyl-1-methylxanthine) is used as standard reference agent.

[2] = biological target: T1, human glucocorticoid receptors (Homo sapiens, UniProt P04150); assay: glucocorticoid receptor (GR) binding assay, [3H]Dexamethasone, HeLa S3 cells
T1 construct: endogenous in cells; host or cells: HeLa S3 (human cervix carcinoma) cells
T1 sequence (P04150 1-777): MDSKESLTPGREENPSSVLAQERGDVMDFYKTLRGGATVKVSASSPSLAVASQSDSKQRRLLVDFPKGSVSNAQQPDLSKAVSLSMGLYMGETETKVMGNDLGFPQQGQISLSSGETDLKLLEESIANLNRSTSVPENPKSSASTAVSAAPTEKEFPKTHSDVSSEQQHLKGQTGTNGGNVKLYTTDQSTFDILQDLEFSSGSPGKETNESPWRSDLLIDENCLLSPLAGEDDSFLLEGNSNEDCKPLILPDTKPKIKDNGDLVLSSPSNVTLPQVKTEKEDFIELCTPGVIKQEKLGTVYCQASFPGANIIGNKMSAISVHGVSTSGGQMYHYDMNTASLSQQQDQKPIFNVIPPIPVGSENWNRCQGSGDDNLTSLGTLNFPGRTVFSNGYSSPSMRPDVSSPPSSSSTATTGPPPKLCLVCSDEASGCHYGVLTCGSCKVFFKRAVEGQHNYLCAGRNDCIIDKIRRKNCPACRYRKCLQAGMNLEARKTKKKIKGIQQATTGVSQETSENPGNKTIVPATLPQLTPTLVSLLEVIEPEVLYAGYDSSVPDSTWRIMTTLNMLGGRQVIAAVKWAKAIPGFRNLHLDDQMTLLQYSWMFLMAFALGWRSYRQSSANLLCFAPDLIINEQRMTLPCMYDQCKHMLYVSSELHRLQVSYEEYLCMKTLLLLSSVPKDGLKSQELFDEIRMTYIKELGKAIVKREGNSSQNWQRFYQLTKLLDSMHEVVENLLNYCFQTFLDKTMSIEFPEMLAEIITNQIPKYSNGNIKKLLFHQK
Source text: Biochemical assay results as presented herein are reflected as the percent inhibition of specific binding or activity of a compound. The assay is described in Cidlowski, J. A. and Cidlowski, N. B., Regulation of glucocorticoid receptors by glucocorticoids in cultured HeLa S3 cells. Endocrinology 109: 1975-1982, 1981, the contents of which are incorporated herein by way of reference. This assay specifically measures the ability of active glucocorticoids in glucocorticoid receptor downregulation.
This assay measures binding of [^3H]Dexamethasone to human glucocorticoid receptors. HeLa S3 cells are suspended in modified HEPES buffer, pH 7.2, using standard techniques.
The cells (1×10^6) are incubated with 6 nM [^3H]Dexamethasone for 120 minutes at 25° C. Non-specific binding is estimated in the presence of 20 μM Dexamethasone. Membranes are filtered and washed three times and the filters are counted to determine [^3H]Dexamethasone specifically bound. Compounds are screened at 10 μM for activity.

Lipoxygenase 5-LO = assay: 5-lipoxygenase enzyme assay (5-LO); format: biochemical, human; conditions: 100 μg/ml
Protocol: For the 5-LO test a crude 5-lipoxygenase enzyme preparation from rat basophilic leukemia cells (RBL-1) is used. The test compound is pre-incubated with the enzyme for 5 minutes in Tris buffer pH 7.2 at room temperature. The reaction is initiated by addition of 15 μM arachidonic acid as substrate and run for an additional 8 minutes after which the reaction is terminated by addition of 70 mM citric acid and levels of 5-HETE are determined by radioimmune assay. […] NDGA (nordihydroguaretic acid) is used as standard reference agent.

IL-5 = assay: Mediator Release, IL-5 (ConA-stimulated PBMNL cells); format: cell-based, human
Protocol: As regards the human IL-5 mediator release text, the test compound is incubated with Concanavalin A (ConA) (10 μg/ml)-stimulated human peripheral blood mononuclear leukocyte (PBMNL) cells in growth medium RPMI-1640 (pH 7.4) overnight at 37° C. in an incubator. The IL-5 cytokine production levels in the conditioned medium are quantified using a sandwich ELISA kit. […] These same concentrations are concurrently applied to a separate group of treated cells and evaluated for possible compound-induced cytotoxicity only if significant inhibition of release is observed. Dexamethasone is used as standard reference agent.

SMILES: Cc1coc2c1C[C@H]1[C@H](C)C=CC(=O)[C@]1(C)C2 (relative stereo) [compound 1, 4,4a,5,9-tetrahydro-3,5,8a-trimethylnaptho[2,3-b]furan-8-one]
- % RESPONSE Ant, Transcription Response, NF-κB ([1]; 0.1 μM): 0%
- % RESPONSE Ant, Transcription Response, NF-κB ([1]; 1 μM): 7%
- % RESPONSE Ant, Transcription Response, NF-κB ([1]; 10 μM): 27%
- % RESPONSE Ant, Transcription Response, NF-κB ([1]; 10 μM, fifth (last) step of the series): 5%
- % RESPONSE Ant, Transcription Response, NF-κB ([1]; 100 μM): 113%
- % RESPONSE Ant, Transcription Response, NF-κB ([1]; 100 μM, listed as compound of formula 1): > 100%
- IC50 ([1]; Homo sapiens, Jurkat, read-out: IC50 inhibition of NF-κB transcription factor): 15.6 µg/mL (≈ 67.7 µM)
- Inhibition (%) Phosphodiesterase PDE4 (Phosphodiesterase PDE4): 35%
- pIC50 [2]: 4.30
- pKi [2]: 4.64
- inhibition at 100 µM ([2]; 100 μM): 70%
- inhibition at 100 µg/mL ([2]; 100 μg/ml): 104%
- nH Glucocorticoid ([2]; Hill coefficient): 1.4
- Inhibition (%) Lipoxygenase 5-LO (Lipoxygenase 5-LO): 99%
- ANT. Mediator Release, IL-5 (IL-5; 10 nM): 17%
- ANT. Mediator Release, IL-5 (IL-5; 0.1 μM): 18%
- ANT. Mediator Release, IL-5 (IL-5; 1 μM): 25%
- ANT. Mediator Release, IL-5 (IL-5; 10 μM): 36%
- ANT. Mediator Release, IL-5 (IL-5; 100 μM): 93%
- ANT. Mediator Release, IL-5 (IL-5; 100 μg/ml (Table 13)): 93%
- pEC50 (IL-5; Homo sapiens): 4.79
- pIC50 (IL-5; Homo sapiens, as worded, read-out: IC50 mediator release Interleukin-5 (IL-5) inhibition assay): 4.79
